Measured values from patent US8048862B2, “Macrocyclic inhibitors of hepatitis C virus replication” (priority 2008, dated 2011).
Like-named read-outs stand apart in the source and are kept apart here.

Legend:
hepatitis C replicon = hepatitis C replicon EC50; format: cell-based; settings: Hepatitis C virus, hepatitis C replicon, read-out: EC50
Description: NS3-NS4 inhibition activity can be determined using known assay methods.

NS3/NS4 complexes = NS3/NS4 complexes (Hepatitis C virus genotype 1a, UniProt P27958); assay: NS3/NS4 inhibition activity (IC50); format: biochemical
NS3/NS4 complexes, sequence (P27958 1027-1657): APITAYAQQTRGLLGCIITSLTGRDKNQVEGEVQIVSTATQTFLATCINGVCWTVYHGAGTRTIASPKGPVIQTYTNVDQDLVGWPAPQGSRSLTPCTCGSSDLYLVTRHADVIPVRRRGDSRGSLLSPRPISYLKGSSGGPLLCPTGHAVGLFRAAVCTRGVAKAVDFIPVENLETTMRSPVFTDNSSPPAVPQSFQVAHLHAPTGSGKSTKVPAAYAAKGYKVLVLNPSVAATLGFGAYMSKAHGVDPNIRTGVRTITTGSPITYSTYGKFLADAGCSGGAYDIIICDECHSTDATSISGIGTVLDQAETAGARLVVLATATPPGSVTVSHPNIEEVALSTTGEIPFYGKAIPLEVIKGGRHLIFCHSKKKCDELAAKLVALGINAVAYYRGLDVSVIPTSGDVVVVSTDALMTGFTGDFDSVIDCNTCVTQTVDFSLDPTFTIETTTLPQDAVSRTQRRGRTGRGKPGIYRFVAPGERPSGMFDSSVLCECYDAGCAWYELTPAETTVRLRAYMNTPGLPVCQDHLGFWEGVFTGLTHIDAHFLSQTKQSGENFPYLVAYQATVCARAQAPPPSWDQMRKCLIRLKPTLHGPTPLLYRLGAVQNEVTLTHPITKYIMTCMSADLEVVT
NS3/NS4 complexes, sequence (P27958 1658-1711): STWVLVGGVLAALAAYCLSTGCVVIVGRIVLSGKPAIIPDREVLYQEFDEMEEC
Procedure, shortened: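 NS3/NS4 complexes were formed and compound inhibitory concentrations determined at ambient temperature (23 °C). The buffer contained 50 mM Tris-HCl pH 7.5, 15% glycerol, 0.6 mM LDAO, 25 μM NS4A peptide and 10 mM DTT.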

Row | Structure (SMILES) | EC50 (hepatitis C replicon; Table 2) | IC50 (NS3/NS4 complexes; Table 2, read-out: IC50) | EC50 (hepatitis C replicon; Table 3) | IC50 (NS3/NS4 complexes; IC50, Table 3) | IC50 (NS3/NS4 complexes; Table 3, read-out: IC50)
1 | CC(C)n1c(O[C@@H]2C[C@H]3C(=O)N[C@]4(C(=O)NS(=O)(=O)C5(C)CC5)C[C@H]4/C=C\CCCCC[C@H](Nc4ccccc4)C(=O)N3C2)nc2cc(F)ccc21 [Compound 468] | < 10 nM | < 10 nM | – | – | –
2 | CC(C)n1c(O[C@@H]2C[C@H]3C(=O)N[C@]4(C(=O)NS(=O)(=O)C5(C)CC5)C[C@H]4/C=C\CCCCC[C@H](Nc4ccccc4)C(=O)N3C2)nc2c(F)cccc21 [Compound 469] | < 10 nM | < 10 nM | – | – | –
3 | Cc1ccc2c(c1)nc(O[C@@H]1C[C@H]3C(=O)N[C@]4(C(=O)NS(=O)(=O)C5(C)CC5)C[C@H]4/C=C\CCCCC[C@H](Nc4ccccc4)C(=O)N3C1)n2C(C)C [Compound 470] | 10 to 75 nM | < 10 nM | – | – | –
4 | Cc1cccc2c1nc(O[C@@H]1C[C@H]3C(=O)N[C@]4(C(=O)NS(=O)(=O)C5(C)CC5)C[C@H]4/C=C\CCCCC[C@H](Nc4ccccc4)C(=O)N3C1)n2C(C)C [Compound 471] | 10 to 75 nM | < 10 nM | – | – | –
5 | COc1ccc2c(O[C@@H]3C[C@H]4C(=O)N[C@]5(C(=O)NS(=O)(=O)C6(C)CC6)C[C@H]5/C=C\CCCCC[C@H](Nc5ccccc5C)C(=O)N4C3)cc(-c3nc(C(C)C)cs3)nc2c1C [Compound 472] | 10 to 75 nM | < 10 nM | – | – | –
6 | COc1ccc2c(O[C@@H]3C[C@H]4C(=O)N[C@]5(C(=O)NS(=O)(=O)C6(C)CC6)C[C@H]5/C=C\CCCCC[C@H](Nc5ccc(F)c(F)c5)C(=O)N4C3)cc(-c3nc(C(C)C)cs3)nc2c1C [Compound 473] | < 10 nM | < 10 nM | – | – | –
7 | CNC(=O)c1cccc(N[C@H]2CCCCC/C=C\[C@@H]3C[C@@]3(C(=O)NS(=O)(=O)C3(C)CC3)NC(=O)[C@@H]3C[C@@H](Oc4cc(-c5nc(C(C)C)cs5)nc5c(C)c(OC)ccc45)CN3C2=O)c1 [Compound 474] | < 10 nM | < 10 nM | – | – | –
8 | COc1ccc2c(O[C@@H]3C[C@H]4C(=O)N[C@]5(C(=O)NS(=O)(=O)C6(C)CC6)C[C@H]5/C=C\CCCCC[C@H](Nc5cccc(NC(C)=O)c5)C(=O)N4C3)cc(-c3nc(C(C)C)cs3)nc2c1C [Compound 475] | < 10 nM | < 10 nM | – | – | –
9 | COc1ccc2c(O[C@@H]3C[C@H]4C(=O)N[C@]5(C(=O)NS(=O)(=O)C6(C)CC6)C[C@H]5/C=C\CCCCC[C@H](Nc5cccc(C#N)c5)C(=O)N4C3)cc(-c3nc(C(C)C)cs3)nc2c1C [Compound 476] | < 10 nM | < 10 nM | – | – | –
10 | COc1ccc2c(O[C@@H]3C[C@H]4C(=O)N[C@]5(C(=O)NS(=O)(=O)C6(C)CC6)C[C@H]5/C=C\CCCCC[C@H](Nc5cccc(C)c5)C(=O)N4C3)cc(-c3nc(C(C)C)cs3)nc2c1C [Compound 477] | < 10 nM | < 10 nM | – | – | –
11 | COc1cccc(N[C@H]2CCCCC/C=C\[C@@H]3C[C@@]3(C(=O)NS(=O)(=O)C3(C)CC3)NC(=O)[C@@H]3C[C@@H](Oc4cc(-c5nc(C(C)C)cs5)nc5c(C)c(OC)ccc45)CN3C2=O)c1 [Compound 478] | 75 to 500 nM | < 10 nM | – | – | –
12 | COc1ccc2c(O[C@@H]3C[C@H]4C(=O)N[C@]5(C(=O)NS(=O)(=O)C6(C)CC6)C[C@H]5/C=C\CCCCC[C@H](Nc5cccc(C(=O)N(C)C)c5)C(=O)N4C3)cc(-c3nc(C(C)C)cs3)nc2c1C [Compound 479] | < 10 nM | < 10 nM | – | – | –
13 | COc1ccc2c(O[C@@H]3C[C@H]4C(=O)N[C@]5(C(=O)NS(=O)(=O)C6(C)CC6)C[C@H]5/C=C\CCCCC[C@H](Nc5cc(F)c(F)c(F)c5)C(=O)N4C3)cc(-c3nc(C(C)C)cs3)nc2c1C [Compound 480] | 10 to 75 nM | < 10 nM | – | – | –
14 | COc1ccc2c(O[C@@H]3C[C@H]4C(=O)N[C@]5(C(=O)NS(=O)(=O)C6(C)CC6)C[C@H]5/C=C\CCCCC[C@H](Nc5ccc(C#N)cc5)C(=O)N4C3)cc(-c3nc(C(C)C)cs3)nc2c1C [Compound 481] | < 10 nM | < 10 nM | – | – | –
15 | COc1ccc2c(O[C@@H]3C[C@H]4C(=O)N[C@]5(C(=O)NS(=O)(=O)C6(C)CC6)C[C@H]5/C=C\CCCCC[C@H](Nc5cc(C)cc(F)c5)C(=O)N4C3)cc(-c3nc(C(C)C)cs3)nc2c1C [Compound 482] | < 10 nM | < 10 nM | – | – | –
16 | CC1(S(=O)(=O)NC(=O)[C@@]23C[C@H]2/C=C\CCCCC[C@H](Nc2ccccc2)C(=O)N2C[C@H](Oc4nc5ccccc5nc4-c4cccs4)C[C@H]2C(=O)N3)CC1 [Compound 486] | 10 to 75 nM | < 10 nM | – | – | –
17 | COc1ccc2c(O[C@@H]3C[C@H]4C(=O)N[C@]5(C(=O)NS(=O)(=O)C6(C)CC6)C[C@H]5/C=C\CCCCC[C@H](Nc5ccccc5F)C(=O)N4C3)cc(-c3nc(C(C)C)cs3)nc2c1C [Compound 492] | 10 to 75 nM | < 10 nM | – | – | –
18 | CC(C)(C)OC(=O)N[C@H]1CCCCC/C=C\[C@@H]2C[C@@]2(C(=O)NS(=O)(=O)C2(C)CC2)NC(=O)[C@@H]2C[C@@H](Oc3nc4ccccc4n3COCC[Si](C)(C)C)CN2C1=O [Compound 701] | – | – | 10 to 100 nM | < 10 nM | –
19 | CC(C)(C)OC(=O)N[C@H]1CCCCC/C=C\[C@@H]2C[C@@]2(C(=O)O)NC(=O)[C@@H]2C[C@@H](Oc3nc4ccccc4s3)CN2C1=O [Compound 1001] | – | – | > 100 nM | – | 10 to 100 nM
20 | CCn1c(O[C@@H]2C[C@H]3C(=O)N[C@]4(C(=O)NS(=O)(=O)C5CC5)C[C@H]4/C=C\CCCCC[C@H](NC(=O)OC(C)(C)C)C(=O)N3C2)nc2ccccc21 [Compound 1007] | – | – | < 10 nM | – | < 10 nM
21 | CC(C)(C)OC(=O)N[C@H]1CCCCC/C=C\[C@@H]2C[C@@]2(C(=O)NS(=O)(=O)C2(C)CC2)NC(=O)[C@@H]2C[C@@H](Oc3nc4ccccc4s3)CN2C1=O [Compound 1008] | – | – | < 10 nM | – | < 10 nM
22 | CC(C)(C)OC(=O)N[C@H]1CCCCC/C=C\[C@@H]2C[C@@]2(C(=O)NS(=O)(=O)C2CC2)NC(=O)[C@@H]2C[C@@H](Oc3nc4ccccc4s3)CN2C1=O [Compound 1009] | – | – | < 10 nM | – | < 10 nM
23 | CC(C)(C)OC(=O)N[C@H]1CCCCC/C=C\[C@@H]2C[C@@]2(C(=O)NS(=O)(=O)C2CC2)NC(=O)[C@@H]2C[C@@H](Oc3nc4ccc(F)cc4s3)CN2C1=O [Compound 1010] | – | – | 10 to 100 nM | – | < 10 nM
24 | CC(C)(C)OC(=O)N[C@H]1CCCCC/C=C\[C@@H]2C[C@@]2(C(=O)NS(=O)(=O)C2(C)CC2)NC(=O)[C@@H]2C[C@@H](Oc3nc4ccc(F)cc4s3)CN2C1=O [Compound 1011] | – | – | 10 to 100 nM | – | < 10 nM
25 | CC(C)(C)OC(=O)N[C@H]1CCCCC/C=C\[C@@H]2C[C@@]2(C(=O)NS(=O)(=O)C2CC2)NC(=O)[C@@H]2C[C@@H](Oc3nc4ccc(Br)cc4s3)CN2C1=O [Compound 1012] | – | – | < 10 nM | – | < 10 nM
26 | CC(C)(C)OC(=O)N[C@H]1CCCCC/C=C\[C@@H]2C[C@@]2(C(=O)NS(=O)(=O)C2(C)CC2)NC(=O)[C@@H]2C[C@@H](Oc3nc4ccc(Br)cc4s3)CN2C1=O [Compound 1013] | – | – | < 10 nM | – | < 10 nM
27 | Cc1ccc2nc(O[C@@H]3C[C@H]4C(=O)N[C@]5(C(=O)NS(=O)(=O)C6(C)CC6)C[C@H]5/C=C\CCCCC[C@H](NC(=O)OC(C)(C)C)C(=O)N4C3)sc2c1 [Compound 1014] | – | – | < 10 nM | – | < 10 nM
28 | Cc1ccc2nc(O[C@@H]3C[C@H]4C(=O)N[C@]5(C(=O)NS(=O)(=O)C6CC6)C[C@H]5/C=C\CCCCC[C@H](NC(=O)OC(C)(C)C)C(=O)N4C3)sc2c1 [Compound 1015] | – | – | < 10 nM | – | < 10 nM
